Experimental data taken from patent publication US11110080B2, “Small molecule inhibitors of bacterial efflux pumps and methods of using same” (The Regents of the University of Colorado, a body Corporate, priority 2017, dated 2021).
“Also recorded” adds a separate entry of the source.

Legend:
Format in all cases: cell-based, Salmonella enterica serovar Typhimurium
[1] = system: extracellular S.Tm grown in MHB broth; assay: Broth activity assay (growth / MIC in Mueller Hinton Broth); settings: Salmonella enterica, three Salmonella strains SL1344, MAR1, S10801
Description: (§1) Overnight Salmonella cultures were washed 3 times in PBS and diluted to an OD of 0.01 in Mueller Hinton Broth in 96-well flat bottom plates. Compound was added using a pin tool (CyBio) or manually, yielding a final concentration of no more than 1% DMSO. Plates were grown at 37° C. shaking and OD600 was monitored using a BioTek Eon incubator shaker microplate absorbance reader. For experiments in defined media, bacteria were grown in M9 minimal media supplemented with 100 mM Tris pH 7.4, 0.35% glycerol, 0.002% histidine, 10 mM MgCl2, and 0.1% casamino acids. Where indicated, media was supplemented with 5 μg/ml polymyxin B or 0.2 mM H2O2. For experiments with LL-37, bacteria were grown in M9 minimal media supplemented with 0.4% dextrose, 0.004% histidine, 1 mM MgSO4, and 5 μg/ml LL-37. For checkerboard assays, MIC was defined as the concentration at which no growth was visually observed.

[2] = system: S.Tm efflux pumps; assay: Hoechst 33342 accumulation assay
Description: Efflux pumps (EPs) represent a key pathogen virulence strategy to protect against host antimicrobials as well as therapeutic antibiotics. […] To uncover putative EPMs within our collection of hits, 58 repurchased compounds were screened in a Hoechst accumulation assay. Bacteria were incubated with Hoechst 33342, a dye which fluoresces when bound to DNA.
Hoechst accumulation assays were performed essentially as described in the literature. Briefly, overnight Salmonella cultures were washed 3 times in PBS and diluted to an OD of 0.1 in PBS with 2.5 μM Hoechst 33342 in the presence of the indicated concentrations of compounds. Fluorescence was monitored on a Biotek Synergy 2 with a 360/40 nm excitation filter and 460/40 nm emission filter. The maximum Hoechst fluorescence over 60 minutes of incubation was normalized to the signal from the equivalent number of heat-killed bacteria, after subtraction of autofluroescent signal determined from compound incubated in the absence of bacteria. Curve fitting to determine EC50s was performed using GraphPad Prism.

[3] = system: S.Tm efflux pumps; assay: Nile Red efflux assay
Source text: Because Hoechst and other dyes commonly used to assess efflux bind cellular components, direct measurement of efflux is not possible using these methods; instead, the Hoechst assay measures dye accumulation, the net result of entry and efflux. Further, the slow off-rate of Hoechst entails that efflux pumps have no effect on dye already bound to DNA. As a result, compounds which increase Hoechst accumulation may actually enhance dye entry by altering porins or disrupting the membrane. To more specifically measure efflux pump activity, a second technique was employed using the dye Nile Red, a lipophilic membrane-partitioning dye which fluoresces in nonpolar environments. Because Nile Red is not known to bind cellular components, to directly observe efflux cells were preloaded with the dye in the absence of glucose to reduce efflux pump activity (FIG. 7A). Upon addition of glucose, bacteria rapidly effluxed Nile Red and fluorescence returned to baseline levels (FIG. 7B, top panel). […] The initial measured fluorescence was lower for DMSO-treated cells (upper dotted line) than for PAβN-treated cells due to glucose-independent efflux during sample preparation (FIG. 8A). Next, it was determined whether efflux pump activity is restored after removal of PAβN. Bacteria were incubated with compound for 15 minutes, pelleted and resuspended in buffer lacking compound, and then stimulated with glucose (FIGS. 7C, 7E).
Nile Red assays were adapted from an established protocol. Briefly, overnight Salmonella cultures were grown in Mueller-Hinton cation-adjusted broth (Sigma), washed, and resuspended at an OD600 of 2.0. Cells were incubated in 10 μM Nile Red for 3 hours at 37° C. with aeration, then moved to room temperature for 1 hour. After pelleting at 2000× g, dye-loaded cells were aliquoted and combined with compound at the indicated concentrations. Two hundred microliters was loaded into 96-well black walled plates (Greiner) and read using a Varioskan Flash Multimode Reader with 540 nm excitation and 625 nm emission filters. We observed that during loading into plates (˜20 minutes), bacteria were able to efflux Nile Red even in the absence of glucose (FIG. 8A). To activate efflux, glucose was added to a final concentration of 2 mM. In some experiments, bacteria were treated with drug for 15 minutes, pelleted at 16,000×g, resuspended in fresh buffer, and stimulated with 2 mM glucose. All wash and incubation steps were performed in PBS with 1 mM MgCl2; incubations were performed in glass tubes to reduce adhesion of Nile Red.

[4] = system: S.Tm; assay: Swimming assay in soft agar (proton motive force); settings: 50 mM, 10 μl on disk (500×, 125×, ~62.5× the MIC for EPM30, EPM35, EPM43)
Description: One way to inhibit efflux pumps is to disrupt the proton motive force, which is required for transport by some EPs. […] Bacteria were injected into the center of 0.25% agar plates, and 10 μl of compound was added to paper disks on the periphery. […] Also ampicillin and rifampicin were tested. We plotted the halo radius versus the concentration as the fold above the MIC (FIG. 9G). […] Next, it was determined whether PAβN inhibited swimming; PAβN is thought to disrupt membranes over long incubations. […] Finally, the EPMs at […] were tested (FIGS. 9D-F).
Saturated overnight cultures were diluted to an OD600 of 0.01 in LB and 1 μL was injected into the center of low agar (0.25%) LB plates. Ten microliters of the indicated compounds were added to sterilized Whatman paper disks (diameter 0.7 cm) placed equidistant from the plate center.

[5] = system: S.Tm wild-type SL1344, MAR1 and S10801; assay: microbe, parasite or virus in culture; settings: MAR1 and S10801
Description: Increased expression or function of efflux pumps often contributes to clinical multidrug resistance. Therefore, whether the EPMs re-sensitize two multidrug resistant strains of S.Tm to tetracycline was tested. Tetracycline is an antibiotic exported by AcrAB. The MAR1 strain is derived from wild-type SL1344 was selected by exposure to tetracycline, and has increased expression of the AcrAB efflux pump. S10801 is an MDR strain isolated from the mesenteric lymph node of a septic calf and is resistant to tetracycline, ampicillin, chloramphenicol, nalidixic acid, and triple sulfa. The basis of multi-drug resistance in this strain is unknown.
as §1

[6] = system: S.Tm efflux pumps; assay: Nile Red efflux assay; settings: 20 minutes incubation in 75 μM

CC(C)c1nc(NC(=N)N)sc1Br [EPM30]
MIC [1]: 100 µM | Hoechst assay EC50 relative to PAβN [2]: lower than that of PAβN | Hoechst accumulation / fluorescence ([2]; wild-type S.Tm, 60 minutes): increased S.Tm accumulation of Hoechst in a dose-dependent manner; also recorded: fluorescence comparable to that of PAβN | glucose-activated efflux of Nile Red ([3]; 75 μM): fully inhibited efflux | Nile Red efflux after washout of compound ([3]; 15 minutes with compound, washed, then glucose): partially restored efflux; also recorded: partially restored Nile Red export | Nile Red fluorescence in the absence of glucose (basal loss) ([3]; no glucose): immediate reduction in fluorescence | halo in swimming assay [4]: formed a halo | sensitivity of MDR S.Tm to tetracycline [5]: not | bacterial integrity and viability [6]: remain intact and viable
